Values quoted from earlier work in patent US20020198176A1, “Treatment of psoriasis with matrix metalloproteinase inhibitors” (priority 2000, published 2002).
pIC50: −log10 of the molar value.

System: MMP
Details: in vitro; read-out: IC50 (50% reduction of the MMP enzymatic activity in vitro)

pIC50: 4.22 to 5.66
SMILES: O=C(C[C@H](CSc1ccccc1)C(=O)O)c1ccc(-c2ccc(Cl)cc2)cc1 [BAY 12-9566]
